The results in this text go back to patent US20080063628A1, “METHODS TO PROMOTE CELL DIFFERENTIATION” (priority 2006, published 2008).

In this assay the test system is early passage (P5) pancreatic-derived stromal cell line. The assay is described as follows: Single trichostatin A dose, 144 h follow-up, gene expression by RT-PCR (Example 6). It is filed as cell-based, human. The conditions noted are these: 1.25 μM once at 0 h. As to the method: Several cell lines obtained from different amniotic fluid specimens (see Example 14) and pancreas donors (see Example 13) were tested with similar results. Two lines at similar passage number but derived from different amniotic fluid specimens are shown in Table VI-A and Table VI-B for this example. One of these cell lines was also used in examples 2 and 4 above. In addition, this example also contains comparison data in Table VI-C and Table VI-D for a single pancreatic-derived stromal line grown to early and late passage number.
Amniotic fluid derived cells or pancreatic-derived stromal cells were seeded into 24-well tissue culture plates at a density of 5000/cm^2 and cultured in AMNIOMAX (Invitrogen) or DMEM with 10% FBS, respectively, under standard cell culture conditions until confluent. After the cells reached confluency, amniotic fluid derived cells were treated once at time 0 hours with 500 nM trichostatin A. Pancreas-derived stromal cells were treated once at time 0 hours with 1.25 μM trichostatin A. Samples for RT-PCR were taken daily from zero to six days at the times indicated in Table VI.
RNA samples were obtained from the treated cultures up to 144 hours after the initial addition of trichostatin A or DMSO. Culture media was removed, the cells were washed with PBS, and RLT lysis buffer containing β-mercaptoethanol (Qiagen) was added. During culture, the medium was not changed nor was freshly prepared trichostatin A added. RNA was purified using the RNeasy Mini Kit (Qiagen), and RNA quantity and quality was determined using a spectrophotometer. cDNA was made using the iScript cDNA synthesis kit (BioRad).
Samples of 20 ng cDNA were used in each reaction to determine the expression levels of the following genes in amniotic fluid-derived cells: Gata1, HNF-3 beta, Pdx-1, insulin, and Sox17. Similarly, samples of 20 ng cDNA were used in each reaction to determine the expression level of the following genes in pancreatic-derived stromal cells: glucagon, HNF-3 beta, insulin and Pdx-1. Real-Time PCR was performed on the Applied Biosystems 7500, and data was analyzed using the accompanying software according to the methods described in Example 15.
Real-time PCR amplifcation and quantitative analysis. Unless otherwise stated, all reagents were purchased from Applied Biosystems. Real-time PCR reactions were performed using the ABI PRISM™ 7500 Sequence Detection System. TAQMAN™ FAST UNIVERSAL PCR MASTER MIX™ (ABI, CA) was used with 20 ng of reverse transcribed RNA in a total reaction volume of 20 μl. Each cDNA sample was run in duplicate to allow correction of pipetting errors. Primers and FAM-labeled TAQMAN™ probes were used at concentrations of 200 nM. The level of expression for each target gene was normalized using the pre-developed Applied Biosystem's human glyceraldehyde-3-phosphate dehydrogenase (GAPDH) endogenous control kit. Primers and probes were designed using either ABI PRISM PRIMER EXPRESS™ software or a pre-developed ABI gene analysis kit. For each gene, either one of the primers or the probe were designed to be exon-boundary spanning. This eliminated the possibility of the primers/probe binding to any genomic DNA present. The primer and probe sets are listed as follows: Pdx-1 (Hs00426216), Insulin (Hs00355773), glucagon (Hs00174967), and FoxA2 (HNF 3-beta) (Hs00232764). The remaining primers were designed using the PRIMERS program (ABI, CA). After an initial 95° C. incubation for 20 sec, samples were cycled 40 times in two stages: a denaturation step at 95° C. for 3 sec, followed by an annealing/extension step at 60° C. for 30 sec.
For each primer/probe set, a cycle time value was determined as the cycle number at which the fluorescence intensity of the PCR reaction reached a specific value in the middle of the exponential region of amplification. An increase in expression of a gene corresponded to a decrease in the number of cycles required for the fluorescence intensity to reach this value.

Molecules are shown by their SMILES.

As for `CC(/C=C/C(=O)NO)=C\[C@@H](C)C(=O)c1ccc(N(C)C)cc1` [trichostatin A], the “HNF (HNF-3 beta) gene expression” value is, setting by setting: (24 hrs) “+++ (detectable at less than 35 cycles by RT-PCR with SE less than 0.9)”; (48 hrs) “nd (not detectable at >40 cycles by RT-PCR)”; (72 hrs) “nd (not detectable at >40 cycles by RT-PCR)”; (96 hrs) “nd (not detectable at >40 cycles by RT-PCR)”; (120 hrs) “nd (not detectable at >40 cycles by RT-PCR)”; (144 hrs) “nd (not detectable at >40 cycles by RT-PCR)”. Further, the Insulin gene expression entry was “nd (not detectable at >40 cycles by RT-PCR)” (24 hrs); “nd (not detectable at >40 cycles by RT-PCR)” (48 hrs); “nd (not detectable at >40 cycles by RT-PCR)” (72 hrs); “nd (not detectable at >40 cycles by RT-PCR)” (96 hrs); “nd (not detectable at >40 cycles by RT-PCR)” (120 hrs); “nd (not detectable at >40 cycles by RT-PCR)” (144 hrs). Also, the Pdx-1 gene expression entry is “+++ (detectable at less than 35 cycles by RT-PCR with SE less than 0.9)” (24 hrs); “nd (not detectable at >40 cycles by RT-PCR)” (48 hrs); “nd (not detectable at >40 cycles by RT-PCR)” (72 hrs); “nd (not detectable at >40 cycles by RT-PCR)” (96 hrs); “nd (not detectable at >40 cycles by RT-PCR)” (120 hrs); “nd (not detectable at >40 cycles by RT-PCR)” (144 hrs). Further, the glucagon gene expression result was “+++ (detectable at less than 35 cycles by RT-PCR with SE less than 0.9)” (24 hrs); “+ (detectable between 35 and 40 cycles by RT-PCR)” (48 hrs); “+ (detectable between 35 and 40 cycles by RT-PCR)” (72 hrs); “+++ (detectable at less than 35 cycles by RT-PCR with SE less than 0.9)” (96 hrs); “nd (not detectable at >40 cycles by RT-PCR)” (120 hrs); “nd (not detectable at >40 cycles by RT-PCR)” (144 hrs).
